PubChem BioAssay AID588658 (The Scripps Research Institute Molecular Screening Center, 2011)

Experiments:
[1] = biological target: Mitogen-activated protein kinase 14 (Homo sapiens) (UniProt Q16539); assay: phospho-p38 level change, either direction, late-stage follow-up, counter-screen for KLF5 inhibitor project, HT29 cells, chemiluminescent western blot, powder samples (AID 588658); details: HT29 cells, phospho-p38 western blot, 24 h; at 10 µM; stronger effect = higher value
[2] = tested on: HT29 cells, phospho-p38 western blot, 24 h; assay: as above; details: measured here: phospho-p38 fold change vs DMSO; at 10 µM

Mitogen-activated protein kinase 14 (Homo sapiens), sequence (Q16539 whole entry, looked up): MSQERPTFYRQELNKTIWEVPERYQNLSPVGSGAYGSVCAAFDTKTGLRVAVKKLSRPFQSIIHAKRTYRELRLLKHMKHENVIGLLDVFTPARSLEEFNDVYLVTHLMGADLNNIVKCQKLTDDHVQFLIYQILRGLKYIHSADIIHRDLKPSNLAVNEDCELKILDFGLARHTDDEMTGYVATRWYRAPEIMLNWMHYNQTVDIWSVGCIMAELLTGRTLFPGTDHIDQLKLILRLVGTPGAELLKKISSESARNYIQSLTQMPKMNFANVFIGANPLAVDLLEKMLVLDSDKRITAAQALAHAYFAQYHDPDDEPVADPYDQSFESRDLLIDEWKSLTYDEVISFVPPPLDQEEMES

Row | SMILES | inhibition [1] [%] | fold change [2]
1 | CN(C(=O)COC(=O)/C=C/c1cccc([N+](=O)[O-])c1)C1CCS(=O)(=O)C1 (stereo unspecified) | -85.3 | 1.85
2 | CN(C(=O)CNC(=O)/C=C/c1cccc(Cl)c1)C1CCS(=O)(=O)C1 (stereo unspecified) | -285 | 3.85
3 | CN(C(=O)CNC(=O)/C=C/c1cccc(Cl)c1)C1CCS(=O)(=O)CC1 | -293 | 3.93
